Literature values as cited in US4610817A, “N-acyl derivatives of peptides, their preparation and their use in the treatment of disorders, and agents for this purpose” (BASF Aktiengesellschaft, priority 1983, dated 1986).
Where a SMILES comes first, the peptide text is derived from it.

Test system: tremor, rigor and akinesia in Parkinson patients
Details: alone or in combination with L-dopa

CC(C)C[C@H](NC(=O)[C@@H]1CCCN1)C(=O)NCC(N)=O [MIF, L-Pro-L-Leu-Gly-NH2] (H-Pro-Leu-Gly-NH2)
clinical effect on Parkinson symptoms: advantageous effect on tremor, rigor and akinesia
